Series [1] has as its target T1, ATP-dependent translocase ABCB1 (Homo sapiens, UniProt P08183). Kind of series: TP_TRANSPORTER: increase in Fura-2 intracellular accumulation (Fura-2: ? uM, Ateomyacin-B: 168 uM) in MCF-7/Dox cells. Format: functional, cell-based.
Series [2] concerns the target T1, ATP-dependent translocase ABCB1. Kind of series: TP_TRANSPORTER: increase in Doxorubicin intracellular accumulation (Doxorubicin: ? uM, Ateomyacin-B: 168 uM) in MCF-7/Dox cells. The format is functional, cell-based.

T1 sequence (P08183 whole entry): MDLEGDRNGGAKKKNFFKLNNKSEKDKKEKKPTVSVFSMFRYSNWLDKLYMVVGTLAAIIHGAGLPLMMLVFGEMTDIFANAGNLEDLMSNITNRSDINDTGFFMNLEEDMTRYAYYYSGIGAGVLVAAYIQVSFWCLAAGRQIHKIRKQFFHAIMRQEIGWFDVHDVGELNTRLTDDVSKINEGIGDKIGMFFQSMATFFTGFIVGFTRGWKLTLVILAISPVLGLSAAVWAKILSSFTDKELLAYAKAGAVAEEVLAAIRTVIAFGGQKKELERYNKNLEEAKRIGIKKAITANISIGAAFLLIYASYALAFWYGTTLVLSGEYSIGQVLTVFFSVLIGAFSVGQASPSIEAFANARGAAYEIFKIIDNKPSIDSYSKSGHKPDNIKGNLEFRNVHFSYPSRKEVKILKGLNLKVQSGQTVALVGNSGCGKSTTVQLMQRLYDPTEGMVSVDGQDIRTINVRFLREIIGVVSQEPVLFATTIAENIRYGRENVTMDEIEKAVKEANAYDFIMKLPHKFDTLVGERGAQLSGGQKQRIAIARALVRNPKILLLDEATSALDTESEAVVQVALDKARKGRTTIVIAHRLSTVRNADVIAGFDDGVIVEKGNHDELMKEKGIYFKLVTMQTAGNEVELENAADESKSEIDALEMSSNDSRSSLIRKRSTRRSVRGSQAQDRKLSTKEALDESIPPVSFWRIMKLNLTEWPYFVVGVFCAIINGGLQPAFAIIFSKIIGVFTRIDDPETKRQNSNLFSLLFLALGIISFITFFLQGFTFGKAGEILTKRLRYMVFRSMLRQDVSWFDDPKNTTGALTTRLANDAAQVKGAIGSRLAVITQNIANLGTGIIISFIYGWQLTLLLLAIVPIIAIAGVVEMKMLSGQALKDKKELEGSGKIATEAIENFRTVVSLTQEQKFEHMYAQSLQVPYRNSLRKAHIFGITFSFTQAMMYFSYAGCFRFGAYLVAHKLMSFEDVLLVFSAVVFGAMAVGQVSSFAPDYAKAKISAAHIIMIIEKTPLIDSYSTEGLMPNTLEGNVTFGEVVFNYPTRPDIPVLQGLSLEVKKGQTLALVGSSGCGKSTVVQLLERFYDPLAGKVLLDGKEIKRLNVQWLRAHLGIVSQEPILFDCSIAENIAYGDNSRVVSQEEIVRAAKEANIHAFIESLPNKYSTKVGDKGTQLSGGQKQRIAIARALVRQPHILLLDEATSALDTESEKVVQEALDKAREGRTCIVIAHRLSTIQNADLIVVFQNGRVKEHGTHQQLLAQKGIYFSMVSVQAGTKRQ

Turning to `CCCCCC(O)CCCCC(O)C1CCC(C2CCC(C(O)CCCCCCCCCCC3=CC(C)OC3=O)O2)O1` (configuration not stated) [Atemoyacin-B], the Activity in series [1] is given as 2.61 fold; in series [2], 3.28 fold.

For the origin of these results see ChEMBL document CHEMBL2074347, “Circumvention of tumor multidrug resistance by a new annonaceous acetogenin: atemoyacin-B” (Acta Pharmacol Sin, 1999).
